A short description of series [1]: Molar ratio titration with Zn(OTf)2 in methanol (absorption and fluorescence). Type of series: physicochemical. The note with it: for fluorescence emission maximum: excitation at 395 nm. As to the method: To prevent solution aggregation of the charge-neutral compounds exemplified by Formula I, Formula II, and/or a derivative thereof (e.g., for example probe 8) in PIPES buffer, the initial solution characterization was conducted in analytical grade MeOH. […] Consistent with an increased ground- and excited state polarization upon Zn(II) complexation, the absorption maximum is red-shifted by 34 nm from 376 nm to 410 nm. Sharp isosbestic points at 306 nm and 395 nm, as well as saturation at an equimolar Zn(II) concentration are indicative of a well-defined solution equilibrium involving only the free probe 8 and a discrete Zn(II)-complex with 1:1 metal-ligand stoichiometry.
Similarly, the fluorescence emission maximum of Formula I, Formula II, and/or a derivative thereof (e.g., for example probe 8) is red-shifted from 460 nm to 513 nm upon Zn(II)-binding. […] To provide a direct comparison with previous probes, probe 8 was also analyzed in aqueous buffer containing DMPC/DMPG liposomes that mimic the lipid bilayers present in cells.
A solution of Formula I, Formula II, and/or a derivative thereof (e.g., for example probe 8) (10 μM) in analytical grade MeOH prepared in a quartz cuvette with a 1-cm pathlength was titrated with Zn(OTf)2 (from a 0.3 mM aqueous stock solution) in 1.0 μM (0.1 molar equiv.) increments. After each aliquot of Zn(II), the solution was equilibrated for 1 minute by magnetic stirring, and an absorbance (spectral window: 250-500 nm) and fluorescence spectrum (excitation at 395 nm, spectral window 405-705 nm) were acquired. In another embodiment, a solution of Formula I, Formula II, and/or a derivative thereof (e.g., for example probe 8 in FIG. 4H) (10 PM) in Chelex®-PIPES buffer (10 mM, 0.1 M KCl, pH 7.0, 25° C.) containing 100 μM of liposomes (4:1 mixture of DMPC and DMPG) prepared in a quartz cuvette with a 1-cm pathlength was titrated with Zn(OTf)2 (from a 0.3 mM aqueous stock solution) in 1.0 μM (0.1 molar equiv.) increments. After each aliquot of Zn(II), the solution was equilibrated for 1 minute by magnetic stirring, and a fluorescence spectrum (excitation: 405 nm, spectral window 420-700 nm) was acquired.

For series [2], the system named is live mouse fibroblast 3T3 cells. Nature of the series: Ratiometric imaging of labile Zn(II) by TPEM (excitation at 750 nm). Type of series: cell-based. As to the method:
With reference to FIG. 7A, emission-ratiometric imaging of labile Zn(II) pools in live mouse fibroblast 3T3 cells with Formula I, Formula II, and/or a derivative thereof (e.g., for example probe 8) by TPEM (excitation at 750 nm). (A) of FIG. 7A Left: The emission was collected with 520 nm-600 nm (BP2) and 440 nm-495 nm (BP1) bandpass filters respectively. Right: Intensity ratio images with R=BP2/BP1. (B) of FIG. 7A Left: Ratio images (BP2/BP1) before (prior to t=5 min) and after the addition of 50 μM ZnSO4 and 5.0 μM pyrithione. Addition of TPEN at t=15 min resulted the reversal of the initial of fluorescence ratio change. (C) of FIG. 7A Mean fluorescence ratio of the cytoplasmic region averaged over 10 cells (P values calculated for n=10 using a two-tailed test). (D) of FIG. 7A Time course of the average ratio change for the mean fluorescence ratio in the cytosol averaged over 10 cells.
To evaluate the Zn(II)-dependent ratiometric response of Formula I and/or Formula IA (e.g., for example probe 8) in live cells, imaging experiments were performed with live mouse fibroblasts (3T3) as model cell line.
In various embodiments, mouse fibroblast (3T3) cells were grown on poly-L-lysine treated glass bottom culture dishes (MatTek) to 90% confluency in DMEM growth media supplemented with 10% bovine calf serum, and 1% penicillin-streptomycin. Before imaging, the media was replaced with pre-warmed colorless serum-free DMEM (1% penicillin-streptomycin, and 1% sodium pyruvate) containing 1.0 μM of probe 8. The cells were incubated at 37° C. under an atmosphere of humidified air containing 5% CO2 for 15 mins. The incubation solution was replaced with prewarmed colorless serum free DMEM. Images were acquired at 37° C., 8% humidity, and 5% CO2 using a Zeiss LSM NLO 710 microscope equipped with a femtosecond pulsed Ti:sapphire laser and a blue 405 nm laser. Scanning fluorescence micrographs were acquired with excitation at 405 nm or 750 nm and the emission was simultaneously collected with bandpass ranges of 495-440 nm (BP1) and 600-520 nm (BP2). Image J was used to evaluate the change in fluorescence emission ratio over time as previously described. The emission ratio for each region of interest was averaged at each time point.
TPEN solid was fully dissolved in anhydrous DMSO to a concentration of 3.0 mM. The stock solution was further diluted to 1.0 mM in pre-warmed phenol-red-free DMEM media before each imaging experiments. The ZnSO4 stock solution was prepared in DI H2O and the pyrithione stock solution was prepared in anhydrous DMSO to a concentration of 3.0 mM. The stock solution of Zn(II)/pyrithione was prepared and diluted with phenol red free DMEM. To determine the limiting emission intensity ratios Rmin and Rmax, mouse fibroblast cells were supplemented with Zn(II)-pyrithione (50 μM ZnSO4 and 5.0 μM pyrithione), and then TPEN (100 μM).

Regarding `COc1ccc2c(c1)C(C)(C)c1nc(-c3cccc(CN(Cc4ncccn4)Cc4ncccn4)n3)sc1-2` [probe 8], the “red shift of absorption maximum upon Zn(II) complexation” value in series [1] is 34 nm. In addition, the absorption maximum in series [1] (Zn(II) complex) is 410 nm; in series [1] (free probe, 10 μM), 376 nm. Further, the fluorescence emission maximum in series [1] (Zn(II)-bound) stood at 513 nm; in series [1] (free probe), 460 nm. For the same molecule, in series [2] (3T3 cells, TPEM), the cellular uptake result is listed as “readily internalized”. Moreover, the “average fluorescence ratio R (BP2/BP1)” value in series [2] (after 50 μM ZnSO4 and 5.0 μM pyrithione, TPEM 750 nm) came to 1.35±0.16; in series [2] (after TPEN, TPEM 750 nm) it was 0.59±0.05; in series [2] (basal, 1.0 μM probe, TPEM 750 nm), 0.59±0.06. Moreover, the “increase of fluorescence ratio” value in series [2] (after Zn(II)/pyrithione against basal, TPEM 750 nm) was “more than 2 fold”.

The values above are taken from US20240410831A1, “Multi-Mode Zinc-Selective Emission-Ratiometric Fluorescent Probes for Biological Application” (Georgia Tech Research Corporation, priority 2023, published 2024).
